Experimental data: the OligoGym collection
Bases are written 5' to 3'; sugars and linkages follow in the same order, as letters with counts (s phosphorothioate, o phosphodiester; PS: all linkages phosphorothioate). C may stand for cytosine or 5-methylcytosine; the collection does not tell. l = locked nucleic acid (LNA); d = 2'-deoxy (DNA)

Target: HIF1A
Test: HeLa, 100 nM transfected, 24 h, mean of 3
Settings: ASO

| Sequence | caspase activation (% of PBS control) |
| --- | --- |
| GTTACTGCCTTCTTAC (sugars ldlllddddddddldl, PS) | 438 |
| GTTACTGCCTTCTTAC (sugars ldllldddddddlddl, PS) | 461 |
| GTTACTGCCTTCTTAC (sugars ldllldddddddldll, PS) | 387 |
| GTTACTGCCTTCTTAC (sugars ldllldddddddlldl, PS) | 470 |
| GTTACTGCCTTCTTAC (sugars ldlllddddddldddl, PS) | 453 |
| GTTACTGCCTTCTTAC (sugars ldlllddddddlddll, PS) | 425 |
| GTTACTGCCTTCTTAC (sugars ldlllddddddldldl, PS) | 438 |
| GTTACTGCCTTCTTAC (sugars ldlllddddddldlll, PS) | 427 |
| GTTACTGCCTTCTTAC (sugars ldlllddddddllddl, PS) | 499 |
| GTTACTGCCTTCTTAC (sugars ldlllddddddlldll, PS) | 410 |
| GTTACTGCCTTCTTAC (sugars ldlllddddddllldl, PS) | 639 |
| GTTACTGCCTTCTTAC (sugars lldddddddddldldl, PS) | 144 |
| GTTACTGCCTTCTTAC (sugars llddlddddddddldl, PS) | 222 |
| GTTACTGCCTTCTTAC (sugars llddldddddddlddl, PS) | 197 |
| GTTACTGCCTTCTTAC (sugars llddldddddddldll, PS) | 218 |
| GTTACTGCCTTCTTAC (sugars llddldddddddlldl, PS) | 330 |
| GTTACTGCCTTCTTAC (sugars llddlddddddldddl, PS) | 191 |
| GTTACTGCCTTCTTAC (sugars llddlddddddlddll, PS) | 193 |
| GTTACTGCCTTCTTAC (sugars llddlddddddldldl, PS) | 235 |

| Sequence | caspase activation (% of PBS control) |
| --- | --- |
| GTTACTGCCTTCTTAC (sugars llddlddddddldlll, PS) | 220 |
| GTTACTGCCTTCTTAC (sugars llddlddddddllddl, PS) | 231 |
| GTTACTGCCTTCTTAC (sugars llddlddddddlldll, PS) | 208 |
| GTTACTGCCTTCTTAC (sugars llddlddddddllldl, PS) | 373 |
| GTTACTGCCTTCTTAC (sugars lldldddddddddldl, PS) | 138 |
| GTTACTGCCTTCTTAC (sugars lldlddddddddlddl, PS) | 135 |
| GTTACTGCCTTCTTAC (sugars lldlddddddddldll, PS) | 139 |
| GTTACTGCCTTCTTAC (sugars lldlddddddddlldl, PS) | 187 |
| GTTACTGCCTTCTTAC (sugars lldldddddddldddl, PS) | 155 |
| GTTACTGCCTTCTTAC (sugars lldldddddddlddll, PS) | 161 |
| GTTACTGCCTTCTTAC (sugars lldldddddddldldl, PS) | 193 |
| GTTACTGCCTTCTTAC (sugars lldldddddddldlll, PS) | 170 |
| GTTACTGCCTTCTTAC (sugars lldldddddddllddl, PS) | 196 |
| GTTACTGCCTTCTTAC (sugars lldldddddddlldll, PS) | 163 |
| GTTACTGCCTTCTTAC (sugars lldldddddddllldl, PS) | 307 |
| GTTACTGCCTTCTTAC (sugars lldllddddddddldl, PS) | 291 |
| GTTACTGCCTTCTTAC (sugars lldlldddddddlddl, PS) | 278 |
| GTTACTGCCTTCTTAC (sugars lldlldddddddldll, PS) | 293 |
| GTTACTGCCTTCTTAC (sugars lldlldddddddlldl, PS) | 363 |
